Assay results as given in patent US7258861B2, “TNF-derived peptides for use in treating oedema” (Innogenetics N.V., priority 2001, dated 2007).

Assays:
[1] = test system: lung microvascular endothelial cells; assay: Whole-cell patch clamp, membrane conductance in lung microvascular endothelial cells; type: cell-based, mouse
Excerpt: (§1) Animals, cells and reagents. Male CBA/J or C57BL/6 mice, as well as male TNFR ½^0/0 C57BL/6 mice deficient in TNF receptors (Bruce et al., 1996) provided by H. Bluethmann, F. Hoffmann-La Roche, Basel, Switzerland, were used at the age of 8–10 weeks. Their care was in accordance with institutional guidelines. Lung microvascular endothelial cells were isolated from CBA/J mice and characterized as described (Jackson et al., 1990) using magnetic beads (Dynabeads M-450, Dynal, Oslo, Norway), covalently bound to a purified rat-anti-mouse PECAM-1 monoclonal antibody (donated by B. Imhof, University of Geneva). Microvascular lung endothelial cells were resuspended in DMEM containing 2 mM L-glutamine, 100 U/ml penicillin, […], 20% FCS, 40 U/ml heparin and […] endothelial cell growth supplement (Brunschwig Chemie, Basel, Switzerland). For patch clamp experiments, cells were plated onto 35×10 mm easy grip Petri dishes (Beckton Dickinson, Plymouth, UK), pre-coated with 0.2% gelatin (Sigma, Buchs, Switzerland). Resident peritoneal macrophages, isolated in ice cold RPMI containing antibiotics and 10 U/ml Heparin, were left to adhere onto 35×10 mm easy grip Petri dishes for 4 h, after which the non-adherent cells were removed. Cells were grown in RPMI 1640 containing 2 mM L-glutamine, 100 U/ml penicillin, 10 μpg/ml streptomycin and 10% fetal bovine serum (all from Gibco). For patch clamp, the macrophages ware used 24 h after isolation.
Electrophysiology. Cells were pretreated for 30 min with TNF, mutTNF and tip peptides at 37° C. in a buffer consisting of 145 mM NaCl, 3 mM KCl, 2mM CaCl2, 2mM MgCl2, 10 mM D-glucose, and 10mM Hepes, and pH-adjusted with NaOH to required value. Cells were then washed with the same buffer pH-adjusted at 7.3, and experiments were performed using the tight-seal, whole-cell recording technique. Currents were recorded with an Axopatch-200A amplifier (Axon Instrument Inc, Foster City, Calif., USA), low pass-filtered at 1 kHz. Digitalization and off-line analysis was performed using the WCP program (J. Dempster, Strathclyde Electrophysiology Software, Glasgow, UK). Patch pipettes were pulled from borosilicate glass and fire polished to have an open resistance of 3–5 MW with an internal solution containing […], 2 mM MgCl2, 10mM EGTA, 20 mM TEA-Cl, 10 mM D-glucose 10 mM Hepes, pH-adjusted to 7.3 with CsOH. Series resistances were kept under 10 MW. Capacitance and series resistance compensation were applied and set to 70%. All experiments were done at room temperature. Results are given as mean ±SEM, unless otherwise indicated. Analysis of variance was performed on currents and membrane conductance values, with post-hoc Dunn-Bonferroni test for significance of differences observed between two groups. A P value of 0.05 was considered significant.

[2] = test system: resident peritoneal macrophages; assay: Whole-cell patch clamp in resident peritoneal macrophages; type: cell-based, mouse; conditions: 30 min preincubation, acidic pH
Excerpt: as §1, with “Cells were grown in RPMI 1640 containing 2 mM L-glutamine, 100 U/ml penicillin, 10 μpg/ml streptomycin and 10% fetal bovine serum (all from Gibco). For patch clamp, the macrophages ware used 24 h after isolation.” left out
Electrophysiology. […] Currents were recorded with an Axopatch-200A amplifier (Axon Instrument Inc, Foster City, Calif., USA), low pass-filtered at 1 kHz. […]

[3] = Quenching of tryptophan fluorescence by brominated lipids; conditions: acidic pH
Excerpt: In order to investigate whether chloride efflux was due to membrane binding or membrane insertion of TNF, we have analyzed whether brominated lipids were able to quench the intrinsic fluorescence of TNF and mutTNF upon membrane interaction. Brominated lipids have been useful in determining the topology of membrane proteins (Bolon et al., 1990) (Markello et al., 1985) as well as studying the membrane interaction of pore-forming toxins (Gonzalez-Manas et al., 1992) (Van der Goot et al., 1991) (Vecsey-Semjen et al., 1997). TNF contains two tryptophan residues, one at the top of the receptor binding domain and one at the top of the so called tip domain. If the tip of the TNF trimer were to insert into the lipid bilayer, the fluorescence of Trp-113 should be quenched upon insertion into liposomes composed of dioleoylphosphatidylglycerol that had bromines attached at positions 9 and 10 of the acyl chains. We have indeed previously observed that tryptophans located at the boundary between the lipid head groups and the acyl chains were succeptible to bromide quenching.

C57/BL6 wild type mice = assay: In situ mouse model of alveolar fluid clearance, wild type mice; type: in vivo; conditions: over 15 min, compared to controls; 0.5 μg/mouse instilled
Experimental: In situ mouse model. Mice were killed by an overdose of pentobarbital sodium (200 mg/kg i.p.). A tracheotomy was done with a 20-gauge trimmed angiocath plastic needle (Becton Dickinson, Sandy, Utah, USA). The lungs were inflated with 7 cm H2O continuous positive airway pressure (CPAP) with 100% oxygen throughout the experiments. Body temperature was maintained at 37–38° C. by an infra-red lamp placed 30 cm above the body (Fisher, Santa Clara, Calif., USA). The lamp was cycled on and off to maintain the core temperature. A temperature probe (Yellow Springs Instrument, Yellow Springs, Ohio, USA) was inserted via a 0.5 cm incision into the abdominal cavity to monitor the core temperature throughout the experiment. These methods have been reported in Matthay et al., 1996 and Ma et al., 2000. […] We added 0.1 μCi of ^131I-labelled albumin (Merck-Frost, Montreal, PQ, Canada) to the instillate as a labeled alveolar protein tracer. • Group 1: Basal alveolar fluid clearance in the wild type mice (n=3) and TNF-R1/TNF-R2 double knock out mice (n=3). • Group 2: Effect of wild type mTNF (0.5 μg/mouse) stimulated alveolar fluid clearance was measured in wild type mice (n=5) and TNF-R1/TNF-R2 double knock out mice (n=5) (Bruce et al., 1996).

normal rats = conditions: instillation in normal rats, over 1 hour; cited from earlier work
isolated rat lungs = assay: Isolated blood perfused flooded rat lung (weight, lung mechanics, PV curves, histology)
Experimental: Rats. For the ex vivo experiments, 31 Sprague-Dawley rats (300 to 350 g) were tracheotomized and mechanically ventilated (40% oxygen in air) under isoflurane anesthesia. The experimental protocol was reviewed and approved by the Ethics Committee for Animal Research and by the Veterinary Office of our institution. The femoral vessels were cannulated for blood sampling, fluid replacement, and continuous arterial blood pressure monitoring. Following anticoagulation (1.5 IU/g i.v. heparin), 20 ml of blood were withdrawn and replaced by an equal volume of dextran-40 (Macrodex 10% in normosaline) to serve as priming volume for the isolated perfusion circuit. The heart-lung block was prepared as described by Ma et al., 2000, weighed and assigned to one of four groups. […] The lungs were suspended, mechanically ventilated, and perfused at constant pressure with autologous blood as described by Ma et al., 2000.
An inspiratory and expiratory quasi-static pressure-volume (PV) curve was performed at the end of the 2-hour reperfusion period by inflating and then deflating the lungs at a constant rate (0.3 ml/sec) using an automated infusion pump. A sigh was applied in all groups every 15 minutes to minimize atelectasis formation. The blood pH was maintained between 7.3 and 7.5 and, if necessary, corrected with sodium bicarbonate 8.4% or a change of the inspired CO2 as required by the blood gas analysis. Every 30 minutes, a blood sample was collected for blood gas analysis as well as for hematocrit and electrolyte concentration.
Inclusion criteria. Immediately following the start of reperfusion, the preparation had to fulfill three technical inclusion criteria: • 1) left atrial pressure (LAP) 5-10 mmHg; • 2) peak airway pressure (AWP) <15 cmH2O; and • 3) pulmonary blood flow (PBF) >10 ml/min. […] The included lungs were then flooded with gentle intratracheal instillation of 2 ml normal saline and the recorded variables measured for 2 subsequent hours.
Histological analysis. Random lung samples were fixed for light and electron microscopy and analyzed by pathologists blinded to the lung's protocol group assignment.

TNF: E.coli-derived recombinant murine TNF
induced increase in conductance in presence of amiloride ([1]; 100 μM amiloride added during pretreatment at pH 6.0): abrogated
whole cell current / membrane conductance ([1]; 30 min preincubation at acidic pH (pH 6), TNF, mutTNF 100 ng/ml, peptides 100 μg/ml): significant increase in outward and, to a lesser extent, inward current
reversal potential of induced conductance ([1]; endothelial cells): about 0 mV
whole cell current / membrane conductance ([1]; preincubation at pH 7.3 (neutral pH)): did not occur
whole cell current [2]: significant increase in outward
fluorescence quenching by brominated lipids [3]: unable to see any fluorescence quenching
increase in alveolar fluid clearance (AFC) (C57/BL6 wild type mice): 24%
increase of alveolar liquid clearance (normal rats): 43%
lung weight change over time after alveolar flooding (isolated rat lungs; 2 hours reperfusion after 2 ml saline, TNF 5 μg, peptides 1 mg): no significant change in weight over time
lung mechanics (peak AWP, Cdyn, Raw) after alveolar flooding (isolated rat lungs; 2 hours reperfusion, TNF 5 μg, peptides 1 mg): no difference from the saline-treated group
lower inflection point of inspiratory quasi-static PV curve (isolated rat lungs; end of 2-hour reperfusion, TNF 5 μg, peptide 1 mg): 20.0±0.8 cmH2O
leukocyte infiltration (lung histology) (isolated rat lungs; hematoxylin-stained slices, compared to controls): significantly increased leukocyte infiltration
endothelial flaps and epithelial blebs (electron microscopy) (isolated rat lungs; pretreated lungs after flooding and 2 hours reperfusion): prominent numerous endothelial flaps
